Test results taken from patent publication US9394297B2, “Amides as pim inhibitors” (AMGEN INC., priority 2012, dated 2016).
Where two headings read alike, the source gives them in different places.

What was measured:
Pim-1 = Pim-1 (Homo sapiens (Human), UniProt P11309); assay: Pim-Mn enzyme assay (HTRF, 384-well), Pim-1; type: biochemical; settings: read-out: Pim-1-Mn IC50 IP
KMS-12-BM cell lines = assay: KMS12 #2 flow cytometry assay (phospho-BAD Ser112); type: cell-based; settings: KMS-12-BM cells, pBAD Ser112 by flow cytometry, 110 min with compound, read-out: KMS-12-Flow IC50 IP
Pim-2 = Pim-2 (Homo sapiens (Human), UniProt Q9P1W9); assay: Pim-Mn enzyme assay (HTRF, 384-well), Pim-2; type: biochemical; settings: read-out: Pim-2-Mn IC50 IP
[1] = Pim-1 enzyme 5 pM, ATP 1.5 μM, BAD (S112) 0.5 μM, HTRF, 22-point curve
[2] = Pim-2 enzyme 0.5 pM, ATP 1.5 μM, BAD (S112) 0.5 μM, HTRF, 22-point curve

Chain of Pim-2 (Q9P1W9 whole entry): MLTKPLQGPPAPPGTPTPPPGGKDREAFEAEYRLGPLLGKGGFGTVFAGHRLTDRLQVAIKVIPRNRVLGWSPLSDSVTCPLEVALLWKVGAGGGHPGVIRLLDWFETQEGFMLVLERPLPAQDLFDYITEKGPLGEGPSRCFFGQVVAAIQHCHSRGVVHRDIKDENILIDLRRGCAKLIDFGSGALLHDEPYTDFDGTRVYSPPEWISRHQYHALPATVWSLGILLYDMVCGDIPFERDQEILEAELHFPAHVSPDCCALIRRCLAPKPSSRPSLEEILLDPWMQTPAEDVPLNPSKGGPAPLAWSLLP
Chain of Pim-1 (P11309 whole entry): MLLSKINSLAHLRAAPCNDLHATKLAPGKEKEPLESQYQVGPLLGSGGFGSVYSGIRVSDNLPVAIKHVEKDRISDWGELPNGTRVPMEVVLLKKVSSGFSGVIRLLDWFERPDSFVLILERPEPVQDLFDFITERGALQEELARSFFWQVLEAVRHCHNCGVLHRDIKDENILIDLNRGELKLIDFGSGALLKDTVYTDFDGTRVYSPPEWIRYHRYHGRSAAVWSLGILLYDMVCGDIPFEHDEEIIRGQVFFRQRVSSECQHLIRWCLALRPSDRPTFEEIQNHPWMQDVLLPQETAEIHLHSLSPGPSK

Row | IC50 (Pim-1; [1]) [nM] | IC50 (KMS-12-BM cell lines; Homo sapiens, 110 min) [nM] | IC50 (Pim-2; [2]) [nM] | IC50 (KMS-12-BM cell lines) [nM] | Compound | IC50 (Pim-1) [nM] | IC50 (Pim-2) [nM]
1 | 0.249 | 34.7 | 0.385 | – | Cc1nc2ccc(F)c(-c3cc4c([nH]3)[C@H](C)NC4=O)c2nc1NC1(C)CC1 [Example 380, (S)-2-(6-fluoro-2-methyl-3-((1-methylcyclopropyl)amino)quinoxalin-5-yl)-6-methyl-5,6-dihydropyrrolo[3,4-b]pyrrol-4(1H)-one] | – | –
2 | 1.42 | 88.4 | 1.37 | – | Cc1nc2cccc(-c3cc4c([nH]3)C(CO)NC4=O)c2nc1NC1(C)CC1 (stereo not drawn) [Example 360, 6-(hydroxymethyl)-2-(2-methyl-3-((1-methylcyclopropyl)amino)quinoxalin-5-yl)-5,6-dihydropyrrolo[3,4-b]pyrrol-4 (1H)-one] | – | –
3 | 1.98 | 151 | 1.95 | – | C[C@@H](O)c1nc2cccc(-c3cc4c([nH]3)CCNC4=O)c2nc1NC(C)(C)C [Example 311, (R)-2-(3-(tert-butylamino)-2-(1-hydroxyethyl)quinoxalin-5-yl)-6,7-dihydro-1H-pyrrolo[3,2-c]pyridin-4(5H)-one] | – | –
4 | 0.0282 | 18.6 | 0.0378 | – | Cc1nc2ccc(F)c(-c3cc4c([nH]3)[C@@H](C)NC4=O)c2nc1NC1CC1 [Example 284, (R)-2-(3-(cyclopropylamino)-6-fluoro-2-methylquinoxalin-5-yl)-6-methyl-5,6-dihydropyrrolo[3,4-b]pyrrol-4(1H)-one] | – | –
5 | 0.414 | 67.1 | 0.53 | – | Cc1nc2cccc(-c3cc4c([nH]3)[C@@H](CO)NC4=O)c2nc1NC1(C)CC1 [Example 361, (S)-6-(hydroxymethyl)-2-(2-methyl-3-((1-methylcyclopropyl)amino)quinoxalin-5-yl)-5,6-dihydropyrrolo[3,4-b]pyrrol-4 (1H)-one] | – | –
6 | 39.9 | > 40000 | 47.4 | – | Cc1nc2cccc(-c3cc4c([nH]3)CCNC4=O)c2nc1-c1ccccc1F [Example 428, 2-(3-(2-Fluorophenyl)-2-methylquinoxalin-5-yl)-6,7-dihydro-1H-pyrrolo[3,2-c]pyridin-4(5H)-one] | – | –
7 | 0.534 | 51.8 | 0.902 | – | Cc1nc2ccc(F)c(-c3cc4c([nH]3)[C@H](C)NC4=O)c2nc1NC1CC1 [Example 285, (S)-2-(3-(cyclopropylamino)-6-fluoro-2-methylquinoxalin-5-yl)-6-methyl-5,6-dihydropyrrolo[3,4-b]pyrrol-4(1H)-one] | – | –
8 | 0.992 | 143 | 0.272 | – | Cc1nc2ccc(F)c(-c3cc4c([nH]3)CCNC4=O)c2nc1NC(C)(C)CO [Example 370, 2-(6-fluoro-3-((1-hydroxy-2-methylpropan-2-yl)amino)-2-methylquinoxalin-5-yl)-6,7-dihydro-1H-pyrrolo[3,2-c]pyridin-4(5H)-one] | – | –
9 | 7.08 | 2310 | 16.4 | – | Cc1nc2ccc(F)c(-c3cc4c([nH]3)[C@H]([C@H](C)O)NC4=O)c2nc1NC1CC1 [Example 354, (R)-2-(3-(cyclopropylamino)-6-fluoro-2-methylquinoxalin-5-yl)-6-((S)-1-hydroxyethyl)-5,6-dihydropyrrolo[3,4-b]pyrrol-4(1H)-one] | – | –
10 | 35.7 | 3490 | 134 | – | Cc1nc2cccc(-c3cc4c([nH]3)CCNC4=O)c2nc1NC(C)(C)CN1CCOCC1 [Example 457, 2-(3-((1,1-dimethyl-2-(4-morpholinyl)ethyl)amino)-2-methyl-5-quinoxalinyl)-1,5,6,7-tetrahydro-4H-pyrrolo[3,2-c]pyridin-4-one] | – | –
11 | 1.78 | 75.8 | 1.64 | – | Cc1nc2cccc(-c3cc4c([nH]3)[C@@H](C)NC4=O)c2nc1NC(C)C [Example 287, (6R)-6-methyl-2-(2-methyl-3-((1-methylethyl)amino)-5-quinoxalinyl)-5,6-dihydropyrrolo[3,4-b]pyrrol-4(1H)-one] | – | –
12 | 26.5 | 9120 | 34.8 | – | Cc1nc2cccc(-c3c[nH]c(C(N)=O)c3)c2nc1NC(C)(C)C [Example 420, 4-(3-(tert-butylamino)-2-methyl-5-quinoxalinyl)-1H-pyrrole-2-carboxamide] | – | –
13 | 0.074 | 35 | 0.13 | – | C[C@H]1NC(=O)c2cc(-c3cccc4c(=O)n(C)c(NC5(C)CCC5)nc34)[nH]c21 [Example 465, 3-methyl-2-((1-methylcyclobutyl)amino)-8-((6R)-6-methyl-4-oxo-1,4,5,6-tetrahydropyrrolo[3,4-b]pyrrol-2-yl)-4(3H)-quinazolinone] | – | –
14 | 18.1 | – | 17.2 | 1310 | Cc1nc2cccc(-c3cc4c([nH]3)CCNC4=O)c2nc1N[C@H]1C[C@@H](NC(=O)OC(C)(C)C)C1 [Example 434, tert-butyl ((1s,3s)-3-((3-methyl-8-(4-oxo-4,5,6,7-tetrahydro-1H-pyrrolo[3,2-c]pyridin-2-yl)quinoxalin-2-yl)amino)cyclobutyl)carbamate] | – | –
15 | 0.791 | 87.6 | 0.429 | – | CC(C)(C)Nc1nc2c(-c3cc4c([nH]3)CCNC4=O)cccc2nc1N [Example 304, 2-(2-amino-3-(tert-butylamino)quinoxalin-5-yl)-6,7-dihydro-1H-pyrrolo[3,2-c]pyridin-4(5H)-one] | – | –
16 | 2.31 | 1510 | 3.38 | – | Cc1nc2cccc(-c3[nH]c4c(c3C)C(=O)NCC4)c2nc1NC(C)(C)C [Example 350, 2-(3-(tert-butylamino)-2-methyl-5-quinoxalinyl)-3-methyl-1,5,6,7-tetrahydro-4H-pyrrolo[3,2-c]pyridin-4-one] | – | –
17 | 133 | 2630 | 139 | – | Cc1nc2cccc(-c3cc4c([nH]3)CCNC4=O)c2nc1NC(=N)N [Example 447, 1-(3-methyl-8-(4-oxo-4,5,6,7-tetrahydro-1H-pyrrolo[3,2-c]pyridin-2-yl)quinoxalin-2-yl)guanidine] | – | –
18 | 0.185 | 8.42 | 0.183 | – | Cc1nc2cccc(-c3cc4c([nH]3)[C@@H](C)NC4=O)c2nc1NC1(C)CC1 [Example 333, (6R)-6-methyl-2-(2-methyl-3-((1-methylcyclopropyl)amino)-5-quinoxalinyl)-5,6-dihydropyrrolo[3,4-b]pyrrol-4(1H)-one] | – | –
19 | 2.91 | 279 | 3.56 | – | Cc1nc2ccc(F)c(-c3cc(C(N)=O)c(C)[nH]3)c2nc1NC1(C)CC1 [Example 417, 5-(6-fluoro-2-methyl-3-((1-methylcyclopropyl)amino)quinoxalin-5-yl)-2-methyl-1H-pyrrole-3-carboxamide] | – | –
20 | 98.6 | > 40000 | 156 | – | Cc1nc2cccc(-c3cc4c([nH]3)CCNC4=O)c2nc1NC(C)c1ccccn1 (stereo not drawn) [Example 321, 2-(2-methyl-3-((1-(pyridin-2-yl)ethyl)amino)quinoxalin-5-yl)-6,7-dihydro-1H-pyrrolo[3,2-c]pyridin-4(5H)-one] | – | –
21 | 83.8 | > 20000 | 62.7 | – | Cc1nc2cccc(-c3cc4c([nH]3)CCNC4=O)c2nc1NC(C)c1ccncn1 (stereo not drawn) [Example 323, 2-(2-methyl-3-((1-(pyrimidin-4-yl)ethyl)amino)quinoxalin-5-yl)-6,7-dihydro-1H-pyrrolo[3,2-c]pyridin-4(5H)-one] | – | –
22 | 6.37 | 410 | 6.02 | – | Cc1nc2cccc(-c3cc4c([nH]3)[C@H](C)NC4=O)c2nc1NCC(F)(F)F [Example 293, (6S)-6-methyl-2-(2-methyl-3-((2,2,2-trifluoroethyl)amino)-5-quinoxalinyl)-5,6-dihydropyrrolo[3,4-b]pyrrol-4(1H)-one] | – | –
23 | 12.3 | 2610 | 37.1 | – | Cc1nc2cccc(-c3cc4n(c3)C(=O)NC4=O)c2nc1NC(C)(C)C [Example 422, 6-(3-(tert-Butylamino)-2-methyl-5-quinoxalinyl)-1H-pyrrolo[1,2-c]imidazole-1,3(2H)-dione] | – | –

Row | Compound | IC50 (Pim-1; [1]) [nM] | IC50 (KMS-12-BM cell lines; Homo sapiens, 110 min) [nM] | IC50 (Pim-2; [2]) [nM] | IC50 (KMS-12-BM cell lines) [nM] | IC50 (Pim-1) [nM] | IC50 (Pim-2) [nM]
24 | Cc1nc2cccc(-c3cc4c([nH]3)C(C)(C)NC4=O)c2nc1NC(C)(C)C [Example 466, 2-(3-(tert-butylamino)-2-methyl-5-quinoxalinyl)-6,6-dimethyl-5,6-dihydropyrrolo[3,4-b]pyrrol-4(1H)-one] | – | 75.5 | – | – | 2.28 | 1.93
25 | Cc1nc2cccc(-c3cc4c([nH]3)C3(CCOCC3)NC4=O)c2nc1NC(C)(C)C [Example 409, 2′-(3-(tert-butylamino)-2-methyl-5-quinoxalinyl)-2,3,5,6-tetrahydro-1′H-spiro[pyran-4,6′-pyrrolo[3,4-b]pyrrol]-4′(5′H)-one] | 31.7 | 5760 | 62.6 | – | – | –
26 | Cc1nc2ccc(F)c(-c3cc4c([nH]3)C3(CC3)NC4=O)c2nc1NC(C)C [Example 330, 2′-(6-Fluoro-3-(isopropylamino)-2-methylquinoxalin-5-yl)-1′H-spiro[cyclopropane-1,6′-pyrrolo[3,4-b]pyrrol]-4′(5′H)-one] | 0.724 | 85.6 | 1.17 | – | – | –
27 | Cc1nc2cccc(-c3cc4c([nH]3)CNC4=O)c2nc1NC(C)(C)C [Example 334, 2-(3-(tert-Butylamino)-2-methyl-5-quinoxalinyl)-5,6-dihydropyrrolo[3,4-b]pyrrol-4(1H)-one] | 1.18 | 43.8 | 0.882 | – | – | –
28 | Cc1nc2cccc(-c3cc4c([nH]3)C3(CC3)NC4=O)c2nc1NC1(C)CC1 [Example 329, 2′-(2-methyl-3-((1-methylcyclopropyl)amino)-5-quinoxalinyl)-1′H-spiro[cyclopropane-1,6′-pyrrolo[3,4-b]pyrrol]-4′(5′H)-one] | – | 26.2 | – | – | 0.334 | 0.39
